What was measured:
MS2 = MS2 test after accelerated ageing (ASTM F1980-16), Example 4; format: cell-based
Excerpt: Same filter media 2.2 as in example 3 was used. The filter media was placed with the outer backing layer on a support platform and the outer wave layer exposed to the coating precursor-comprising plasma discharge (or the plasma source) during the atmospheric pressure plasma coating process.
Two different precursors were used: an aqueous solution comprising 50% by weight of citric acid (CAS 77-92-9), and an aqueous solution comprising 25% by weight n-alkyl(C12-16)-n,n-dimethyl-n-benzylammonium chloride (BTC50E; CAS 68424-85-1) (1:1 w/w dilution in water).
Filter media samples were coated with each coating by passing 3 or 6 times through the plasma discharge area. The virucidal performance was tested by the MS2 test as explained above. An accelerated ageing test was performed according to ASTM F1980-16. […] An ageing test of 3 days at 55° C. and 75% RH represents 1 month in real life conditions. The results of the virucidal performance after ageing gives an idea of the durability of the coating over time.

MS2 virus = assay: Virucidal testing with MS2 droplets on coated filter media 2.2 (Example 3); format: cell-based; settings: 2 hours incubation
Method: Filter media 2.2 were coated according to the process parameters of Table 9 using the same PlasmaLine® equipment. For each coating process, 2 samples were coated with the outer waved layer exposed to the plasma source, and 2 samples were coated with the outer backing layer surface exposed.
Two precursors were used: an aqueous solution comprising 40% by weight of citric acid, and a solution of 15% by weight of chlorocresol in ethanol.
The anti-viral properties were tested by application of a fixed number of water droplets containing the MS2 virus on the surface of the samples. The droplets were applied to the surface that was exposed to the plasma source during the atmospheric pressure plasma coating process. After an incubation of 2 hours, the samples were immerged in a recuperation solution to extract the virus from the samples. The recuperation solution was placed in a petri dish wherein the E. coli bacteria grew, and the number of viral zones (zones comprising death bacteria) are counted. A lower number of viral zones indicates a larger neutralisation of the virus by the plasma coating.
The Virucide result (log value) gives the log value of the number of living viruses found in the recuperation solution.

[1] = pH test (change in pH value before and after coating, penetration depth); format: physicochemical; settings: Outer wave sample
Method: The penetration depth was measured by measuring the change in pH value before and after coating on samples of the outer wave layer 51. […] Presence of citric acid was also detected in the intermediate layer 52.

[2] = system: Escherichia coli (gram-negative); assay: Quantitative antibacterial activity test of treated materials (OECD / ISO 22197/20743), Gram −; format: cell-based
[3] = system: Staphylococcus aureus (gram-positive); assay: Quantitative antibacterial activity test of treated materials (OECD / ISO 22197/20743), Gram +; format: cell-based, S. aureus ATCC6538P
Phi-6 bacteriophage = assay: Phi-6 virucidal test (modified ISO 10705-1:1995); format: cell-based; settings: 20 wt% citric acid precursor, Outer wave sample, 2-hour contact
[4] = 3 passes, 0 days oven (0 months real life)
[5] = 3 passes, 3 days oven 55° C. 75% RH (1 month real life)
[6] = 3 passes, 6 days oven 55° C. 75% RH (2 months real life)
[7] = 3 passes, 9 days oven (3 months real life)
[8] = 3 passes, 19 days oven (6 months real life)
[9] = 3 passes, 27 days oven (9 months real life)
[10] = 3 passes, 36 days oven (12 months real life)
[11] = 6 passes, 0 days oven (0 months real life)
[12] = 6 passes, 3 days oven 55° C. 75% RH (1 month real life)
[13] = 6 passes, 6 days oven 55° C. 75% RH (2 months real life)
[14] = 6 passes, 9 days oven (3 months real life)
[15] = 6 passes, 19 days oven (6 months real life)
[16] = 6 passes, 27 days oven (9 months real life)
[17] = 6 passes, 36 days oven (12 months real life)
[18] = exposed side Backing layer, 5 passes
[19] = exposed side Backing layer, 10 passes
[20] = exposed side waved layer, 5 passes
[21] = exposed side waved layer, 10 passes
[22] = exposed side waved layer, 20 passes
[23] = exposed side Backing layer, 20 passes

## n-alkyl(C12-16)-n,n-dimethyl-n-benzylammonium chloride [BTC50E]
MS2; [4]
  Virus neutralized (%): 99.57%
  Viruside results (log red): 2.37 log red
MS2; [5]
  Virus neutralized (%): 99.96%
  Viruside results (log red): 3.38 log red
MS2; [6]
  Virus neutralized (%): 99.74%
  Viruside results (log red): 2.59 log red
MS2; [7]
  Virus neutralized (%): 99.35%
MS2; [8]
  Virus neutralized (%): 99.86%
MS2; [9]
  Virus neutralized (%): 99.89%
MS2; [10]
  Virus neutralized (%): 99.98%
MS2; [11]
  Virus neutralized (%): 99.83%
  Viruside results (log red): 2.78 log red
MS2; [12]
  Virus neutralized (%): 99.82%
  Viruside results (log red): 2.75 log red
MS2; [13]
  Virus neutralized (%): 99.83%
  Viruside results (log red): 2.78 log red
MS2; [14]
  Virus neutralized (%): 98.88%
MS2; [15]
  Virus neutralized (%): 99.83%
MS2; [16]
  Virus neutralized (%): 99.70%
MS2; [17]
  Virus neutralized (%): 98.59%

## Cc1cc(O)ccc1Cl [Chlorocresol, reference compound]
MS2 virus; [18]
  Virus neutralized (%): 68.4%
  Viruside results (log red): 0.5 log red
MS2 virus; [19]
  Virus neutralized (%): 98.0%
  Viruside results (log red): 1.7 log red
MS2 virus; [20]
  Virus neutralized (%): 36.9%
  Viruside results (log red): 0.2 log red
MS2 virus; [21]
  Virus neutralized (%): 74.9%
  Viruside results (log red): 0.6 log red
MS2 virus; [22]
  Virus neutralized (%): 84.2%
  Viruside results (log red): 0.8 log red

## Citric Acid
[1]; 6 passes
  pH test: 1.66
[1]; 10 passes
  pH test: 1.72
[1]; 20 passes
  pH test: 1.78
MS2; [4]
  Virus neutralized (%): 99.86%
  Viruside results (log red): 2.86 log red
MS2; [7]
  Virus neutralized (%): 97.76%
MS2; [8]
  Virus neutralized (%): 97.38%
MS2; [9]
  Virus neutralized (%): 99.00%
MS2; [10]
  Virus neutralized (%): 97.91%
MS2; [11]
  Virus neutralized (%): 99.78%
  Viruside results (log red): 2.65 log red
MS2; [13]
  Virus neutralized (%): 98.09%
  Viruside results (log red): 1.72 log red
MS2; [14]
  Virus neutralized (%): 96.45%
MS2; [15]
  Virus neutralized (%): 95.91%
MS2; [16]
  Virus neutralized (%): 97.61%
MS2; [17]
  Virus neutralized (%): 93.97%
[2]; PPNW substrate 25 g/m^2
  % Gram − bacteria reduced: >99.999%
  Gram − log reduction: >5.0 log
[2]; Tyvek substrate
  % Gram − bacteria reduced: 97.5%
  Gram − log reduction: 1.6 log
[3]; PPNW substrate 25 g/m^2
  % Gram + bacteria reduced: >99.995%
  Gram + log reduction: >4.3 log
[3]; Tyvek substrate
  % Gram + bacteria reduced: >99.98%
  Gram + log reduction: >3.8 log
MS2 virus; [18]
  Virus neutralized (%): 93.7%
  Viruside results (log red): 1.2 log red
MS2 virus; [19]
  Virus neutralized (%): 96.0%
  Viruside results (log red): 1.4 log red
MS2 virus; [23]
  Virus neutralized (%): 99.8%
  Viruside results (log red): 2.7 log red
MS2 virus; [20]
  Virus neutralized (%): 80.0%
  Viruside results (log red): 0.7 log red
MS2 virus; [21]
  Virus neutralized (%): 93.7%
  Viruside results (log red): 1.2 log red
MS2 virus; [22]
  Virus neutralized (%): 98.7%
  Viruside results (log red): 1.9 log red
Phi-6 bacteriophage; 6 passes
  Avg. Phi-6 (log red): >2.2 log red
  Phi-6 neutralized (%): >99.37%
Phi-6 bacteriophage; 10 passes
  Avg. Phi-6 (log red): >2.2 log red
  Phi-6 neutralized (%): >99.37%
Phi-6 bacteriophage; 20 passes
  Avg. Phi-6 (log red): >2.2 log red
  Phi-6 neutralized (%): >99.37%

## Benzalkonium chloride [reference compound]
[2]; PPNW substrate 25 g/m^2
  % Gram − bacteria reduced: 99.9996%
  Gram − log reduction: 5.4 log
[2]; Tyvek substrate
  % Gram − bacteria reduced: 98.7%
  Gram − log reduction: 1.9 log
[3]; PPNW substrate 25 g/m^2
  % Gram + bacteria reduced: >99.994%
  Gram + log reduction: >4.2 log
[3]; Tyvek substrate
  % Gram + bacteria reduced: >99.5%
  Gram + log reduction: >3.3 log

## CCCCCCCCCCCCCCCCCC[N+](C)(C)CCC[Si](OC)(OC)OC.[Cl-] [SiQAM, Dimethyloctadecyl[3-(trimethoxysilyl)propyl] ammonium chloride]
[2]; PPNW substrate 25 g/m^2
  % Gram − bacteria reduced: >99.9996%
  Gram − log reduction: >5.4 log
[2]; Tyvek substrate
  % Gram − bacteria reduced: >98.7%
  Gram − log reduction: >1.9 log
[3]; PPNW substrate 25 g/m^2
  % Gram + bacteria reduced: >99.994%
  Gram + log reduction: >4.2 log
[3]; Tyvek substrate
  % Gram + bacteria reduced: >99.95%
  Gram + log reduction: >3.3 log

## PVP-12 Poly(vinylpyrrolidone)- Iodine complex [PVP-I2, reference compound]
[2]; PPNW substrate 25 g/m^2
  % Gram − bacteria reduced: >99.9996%
  Gram − log reduction: >5.4 log
[3]; PPNW substrate 25 g/m^2
  % Gram + bacteria reduced: >99.994%
  Gram + log reduction: >4.2 log

## C=C(C)C(=O)OCCN(C)C [DIMAEMA, 2-(Dimethylamino) ethyl methacrylate]
[2]; PPNW substrate 25 g/m^2
  % Gram − bacteria reduced: >99.9996%
  Gram − log reduction: >5.4 log
[2]; Tyvek substrate
  % Gram − bacteria reduced: 20.6%
  Gram − log reduction: 0.1 log
[3]; PPNW substrate 25 g/m^2
  % Gram + bacteria reduced: >99.994%
  Gram + log reduction: >4.2 log
[3]; Tyvek substrate
  % Gram + bacteria reduced: >99.95%
  Gram + log reduction: >3.3 log
